These results are taken from ChEMBL document CHEMBL1201862, “PubChem BioAssay data set” (2004).

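These data come from cells grown in 96-well plates and exposed to compound for 48 hours at five concentrations. GI50 marks 50% less growth.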 Calls of active or inactive are those of the source. Rule as the data show it: active = GI50 up to about 1.1 µM and inactive = higher. Where only a bound is given, the exact number is not on record here.

Some test systems named below: SK-MEL-28; ACHN; K562; CCRF-CEM; HT-29; OVCAR-5; LOX IMVI; UO-31; CAKI-1; NCI-H522; NCI-H226; SF-539; HOP-62; MOLT-4; M14; OVCAR-4; NCI/ADR-RES; MCF7; DU-145.
Common to all, as to assay: growth of human tumour cells (NCI), 48 h

For `COc1cc2c(c(OC)c1OC)-c1ccc(SC)c(=O)cc1C(CO)C2` (stereo not given), the GI50 in the test on SK-MEL-28 was 0.0735 µM (active); in the test on ACHN it was 0.513 µM (active); in the test on K562, 0.0575 µM (active); in the test with CCRF-CEM it was 0.0891 µM (active); in the test on HT-29, 0.134 µM (active); in the test on OVCAR-5, 0.431 µM (active). The GI50 was 0.22 µM (active) in the test with LOX IMVI; 0.455 µM (active) in the test with UO-31; 0.634 µM (active) in the test with CAKI-1; 0.0527 µM (active) with NCI-H522; 0.279 µM (active) with NCI-H226; 0.143 µM (active) in the test with SF-539. Further, the GI50 with HOP-62 is 0.233 µM (active); in the test on MOLT-4, 0.596 µM (active); in the test with M14 it was 0.103 µM (active); in the test on OVCAR-4, 0.769 µM (active).
Turning to `CCCCCC1CC=CC(NC(=O)OCc2ccccc2)C1/C=C/CCCC1OCCO1` (stereo not given), the GI50 with SK-MEL-28 was > 36.5 µM (inactive); in the test with ACHN it was 24.1 µM (inactive); in the test with K562 it was 24.9 µM (inactive); with CCRF-CEM, 47.5 µM (inactive); in the test on HT-29, > 100 µM (inactive); in the test on OVCAR-5 it was > 53.8 µM (inactive). Further, the GI50 in the test with LOX IMVI was 57.7 µM (inactive); with UO-31 it was 13.1 µM (inactive); with CAKI-1, 23.5 µM (inactive); with NCI-H522, 20.8 µM (inactive); in the test with NCI-H226 it was 30.9 µM (inactive); in the test with SF-539 it was > 100 µM (inactive). Moreover, the GI50 in the test with HOP-62 is > 100 µM (inactive); in the test on MOLT-4, 12.5 µM (inactive); with M14, > 100 µM (inactive); in the test with OVCAR-4, > 72.9 µM (inactive).
For the compound `COc1ccc(N2C(=O)c3c(c4[nH]c5ccccc5c4c4ccc(C(C)(C)C)cc34)C2=O)cc1`, the GI50 in the test with SK-MEL-28 is 89.1 µM (inactive); in the test with ACHN, 46.3 µM (inactive); in the test with K562, > 100 µM (inactive); with CCRF-CEM, 21.3 µM (inactive); in the test on OVCAR-5, > 100 µM (inactive); in the test with LOX IMVI, > 100 µM (inactive). Moreover, the GI50 is 97.1 µM (inactive) in the test on UO-31; 42 µM (inactive) in the test on CAKI-1; 33.2 µM (inactive) with NCI-H522; 35.8 µM (inactive) in the test with NCI-H226; > 100 µM (inactive) with SF-539; 42.8 µM (inactive) in the test on HOP-62. Further, the GI50 in the test with MOLT-4 was 21.6 µM (inactive); with M14, 40.3 µM (inactive); in the test on OVCAR-4, 20.3 µM (inactive).
As to `CC(C)(C)OC/C=C(\Br)CO`, the GI50 in the test on NCI/ADR-RES, with SK-MEL-28, in the test with ACHN, in the test on K562, with CCRF-CEM and in the test with HT-29 was > 100 µM (inactive) in each case. The GI50 in the test on MCF7, in the test on OVCAR-5, with UO-31, in the test on CAKI-1, in the test with DU-145 and with NCI-H226 was > 100 µM (inactive) throughout. For the same compound, the GI50 in the test with SF-539, in the test on HOP-62, in the test with MOLT-4, in the test on M14 and in the test with OVCAR-4 was > 100 µM (inactive) throughout.
In the case of `CC1=Nn2c(nnc2-c2ccccc2Cl)NC(C)(C)C1`, the GI50 is > 100 µM (inactive) with SK-MEL-28; > 100 µM (inactive) with ACHN; 42.9 µM (inactive) in the test on K562; 34.2 µM (inactive) in the test on CCRF-CEM; > 100 µM (inactive) with HT-29; > 100 µM (inactive) in the test with OVCAR-5. Besides, the GI50 was > 100 µM (inactive) in the test with LOX IMVI; > 100 µM (inactive) with UO-31; > 100 µM (inactive) in the test with CAKI-1; 23.8 µM (inactive) in the test on NCI-H522; > 100 µM (inactive) with NCI-H226; > 100 µM (inactive) with SF-539. For the same compound, the GI50 with HOP-62 is > 100 µM (inactive); in the test on MOLT-4 it was 47.3 µM (inactive); with M14 it was > 100 µM (inactive); in the test on OVCAR-4, > 100 µM (inactive).
